Entries after “also recorded” stand apart in the source; their conditions may differ.
Legend:
CCI-ION rats = format: in vivo, rat
Procedure: Rats are anaesthetized with sodium pentobarbital (50 mg/kg i.p.). Unilateral CCI-ION is performed under direct visual control using a Zeiss microscope (10-25×) essentially as described by Vos et al (Vos B P, Strassman A M, Maciewicz R J (1994), J. Neurosci. 14: 2708-2723). Briefly, the head is fixed in a Horsley-Clarke stereotaxic frame and a midline scalp incision is made, exposing skull and nasal bone. The edge of the orbit, formed by the maxillary, frontal, lacrimal, and zygomatic bones, is dissected free. The orbital contents are gently deflected to give access to the infraorbital nerve which is dissected free at its most rostral extent in the orbital cavity, just caudal to the infraorbital foramen. Only 5 mm of the nerve can be freed (Vos et al.), providing the space for placement of two chromic catgut (5-0) ligations tied loosely (with about 2 mm spacing) around it. […] Finally, scalp incision is closed using silk sutures (4-0). In sham-operated rats, the ION is exposed using the […] procedure, but is not ligated.
Mechanical sensitivity is determined with a graded series of eleven von Frey filaments (Bioseb, Bordeaux, France). The filaments produce a bending force of 0.07, 0.16, 0.40, 0.60, 1.00, 2.00, 4.00, 6.00, 8.00, 10.00 and 12.00 g, respectively. The stimuli are applied within the ION territory (vibrissae pad) three times at the nerve-injured side and then at the contralateral side for a total of 6 applications of each filament per rat, always beginning with the filament producing the lowest force. The von Frey filaments are applied at least 3 seconds after the rats returned to their initial resting state. For each session, the complete series of von Frey filaments is tested in increasing force order.
The latter responses represent the highest scores in the rank-ordered response scoring system initially described by Vos et al. The minimal force filament causing at least one among these responses (to at least 2 out of the 3 an each side) allows determination of the mechanical response threshold. The 12.00 g filament is the cut-off threshold (no tissue-injury occurs at this pressing force).
For studying the effects of acute treatment with tapentadol in CCI-ION rats, tapentadol (1 or 10 mg/kg i.p.) or its vehicle (0.9% NaCl i. p.) was injected acutely 14 days after surgery. Sham-operated rats were treated in parallel. Pressure threshold values to trigger nocifensive responses to von Frey filaments application onto the plantar surface of ipsilateral hindpaw were determined at various times after acute injection of tapentadol or saline. Cut-off was fixed at 12 g pressure.
For studying the effects of subchronic treatment with tapentadol in CCI-ION rats, starting on day 16 (Time=D) after surgery, they received i.p. injections of tapentadol (10 mg/kg, twice daily, at 10:00 AM and 6:00 PM) or saline (at the same day times as the drug) for four days. On the following day (day 20 after surgery), both tapentadol- and saline-pretreated CCI-SN rats were i.p. injected with Tapentadol (10 mg/kg; Time=0) and then subjected to von Frey filaments' test applied to ipsilateral hindpaw for determination of pressure threshold values at various times thereafter.
14 days after CCI-ION surgery, rats were injected with reboxetine (10 mg/kg i.p.) or its vehicle (0.9% NaCl) followed, 15 min later, by morphine (3 mg/kg s.c.) or its vehicle (0.9% NaCl) and subjected to von Frey filament tests for the following 4 hours. Sham-operated rats were treated in parallel.

[1] = system: mRNA encoding ATF3, IL-6, BDNF and iNOS; experiment: Real-time qRT-PCR of mRNA levels in ganglia and central tissues of CCI-SN rats; format: in vivo, rat; conditions: subchronic 10 mg/kg i.p. twice daily; ipsilateral DRG and dorsal quadrant of lumbar spinal cord; day 20
Procedure: Real-time qRT-PCR determinations were made on the 20th day after CCI-SN or sham operation. Saline or Tapentadol was administered at days 16-20 under treatment conditions according to Example 2 (subchronic treatment conditions). Rats were decapitated 4 h after the last injection on day 20, tissues were immediately dissected in the cold (0° C.) and processed for mRNA extraction and quantification as described by Latrémolière et al. (J. Neurosci. 2008, 28, 8489-8501).
mRNA levels are expressed with reference to transcript encoding the […] GaPDH (glyceraldehyde 3-phosphate dehydrogenase). Each bar is the mean±S.E.M. of 4-6 independent determinations.

[2] = system: mRNA encoding ATF3, IL-6, BDNF and iNOS; experiment: Real-time qRT-PCR of mRNA levels in ganglia and central tissues of CCI-ION rats; format: in vivo, rat; conditions: subchronic 10 mg/kg i.p. twice daily; ipsilateral trigeminal ganglion and spinal nucleus of the trigeminal nerve; day 20
BDNF-induced allodynia = experiment: Mechanical allodynia induced by intrathecal administration of BDNF in healthy rats (von Frey filaments test); format: in vivo, rat
Procedure: In a first part of this study, BDNF (0.3 ng in 25 μl of saline per rat) or saline (25 μl) was injected intrathecally in adult male rats slightly anesthetized with isoflurane (according to Mestre et al. (1994), J. Pharmacol. Toxicol. Meth., 32, 197-200), and animals were subjected to von Frey filaments test applied to hindpaws at various times thereafter.
In a second part of this study, tapentadol (3 or 10 mg/kg i.p.) or saline was administered to rats on the 7th day (Time=0 on abscissa) after intrathecal injection of BDNF (Time=C) as described above. Pressure threshold values were determined using von Frey filaments test applied to hindpaws.
In a first part of this study (A), reboxetine (10 mg/kg i.p.; mesylate, Ascent Scientific, Bristol, UK), tapentadol (10 mg/kg i.p.) or saline (0.5 ml i.p./rat) was injected on the 7th day after intrathecal administration of BDNF (0.3 ng in 25 μl of saline per rat). Pressure threshold values were determined at various times thereafter using von Frey filaments test applied to hindpaws.

[3] = molecular target: recombinantly produced μ-opioid receptor (Homo sapiens, UniProt P35372); conditions: cited from earlier work
[4] = human, in vivo; cited from earlier work

Chain of recombinantly produced μ-opioid receptor (P35372 whole entry): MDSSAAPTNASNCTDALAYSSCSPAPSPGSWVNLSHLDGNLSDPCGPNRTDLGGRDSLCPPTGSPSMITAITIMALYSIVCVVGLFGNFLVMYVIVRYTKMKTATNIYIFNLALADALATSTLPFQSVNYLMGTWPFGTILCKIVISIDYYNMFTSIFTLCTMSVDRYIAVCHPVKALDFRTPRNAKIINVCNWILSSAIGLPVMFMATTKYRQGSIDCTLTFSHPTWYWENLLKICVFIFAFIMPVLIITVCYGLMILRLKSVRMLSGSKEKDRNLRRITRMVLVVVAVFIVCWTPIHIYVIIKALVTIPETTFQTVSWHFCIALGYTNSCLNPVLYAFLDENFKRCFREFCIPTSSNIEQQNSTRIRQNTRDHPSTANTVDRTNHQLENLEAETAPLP

With `CC[C@@H](c1cccc(O)c1)[C@@H](C)CN(C)C` [tapentadol, (−)-(1R,2R)-3-(3-dimethylamino-1-ethyl-2-methyl-propyl)-phenol] the “time for pressure threshold values to return to saline level after the maximum” value (CCI-ION rats; 1 mg/kg i.p., acute) was no more than 45 min, the “time over which the increase in pressure threshold developed” value (CCI-ION rats; 1 mg/kg i.p., acute) was 45 min and the “increase in pressure threshold value compared to saline-treated CCI-ION rats” value (CCI-ION rats; 1 mg/kg i.p., acute, two weeks after surgery) was no more than 6 fold. The “anti-allodynic effect after subchronic pretreatment (sensitization/desensitization)” value (CCI-ION rats; 10 mg/kg i.p. twice daily for four days or saline, then 10 mg/kg i.p.) was “had the same characteristics (amplitude, duration); also recorded: neither in CCI-SN rats nor in those with CCI-ION, any sign of sensitization or desensitization”, the “duration of statistically significant anti-allodynic effect” value (CCI-ION rats; 10 mg/kg i.p., acute) was “more than two hours” and the “pressure threshold values relative to those determined prior to injection” value (CCI-ION rats; 10 mg/kg i.p., acute, 30-60 min after injection) was 15-20 fold. For the same compound, the “levels of mRNA encoding ATF3, IL-6, BDNF and iNOS versus saline-treated CCI-SN rats” value [1] was “not significantly different”, the “ATF3, IL-6, BDNF and iNOS mRNA levels in CCI-ION rats” value [2] was “no significant effects” and the “time at which the maximal increase in pressure threshold was reached” value (BDNF-induced allodynia; 10 mg/kg i.p.) was 15 min. For the same compound, the “pressure threshold values compared to untreated healthy rats” value (BDNF-induced allodynia; 10 mg/kg i.p., 15-30 min after injection) was “return of pressure threshold values up to levels determined in untreated healthy rats”, the “reversal of BDNF-induced allodynia, dose dependence” value (BDNF-induced allodynia; 3 or 10 mg/kg i.p., 7th day after intrathecal BDNF) was “reversed BDNF-induced allodynia in a dose-dependent manner” and the “affinity to the μ-opioid receptor, times less than that of morphine” value [3] was 18 times. The “pain-alleviating action relative to morphine” value [4] was “two to three times less”.

Reference: US20190274974A1, “Treatment of Pain Associated with Trigeminal Neuralgia” (priority 2011, published 2019)
